Source: patent US6350885B1, “Tricyclic heteroaromatics and their derivatives as inhibitors of matrix metalloproteinases” (Warner-Lambert Company, priority 1998, dated 2002)

Key:
[1] = biological target: T1, MMP-3CD (stromelysin-1 catalytic domain) (Homo sapiens, UniProt P08254); assay: MMP inhibition, thiopeptolide substrate assay; assay type: biochemical; conditions: thiopeptolide substrate Ac-Pro-Leu-Gly-thioester-Leu-Leu-Gly-OEt
T1 construct: MMP-3CD (stromelysin-1 catalytic domain)
Experimental: (§1) Experiments were carried out with the full-length and catalytic domains of the proteinases. […] IC50 values were determined using a thiopeptolide substrate, Ac-Pro-Leu-Gly-thioester-Leu-Leu-Gly-OEt (Ye Q.-Z., Johnson L. L., Hupe D. J., and Baragi V., “Purification and Characterization of the Human Stromelysin Catalytic Domain Expressed in Escherichia coli,” Biochemistry, 1992;31:11231-11235; Ye Q.-Z., Johnson L. L., Yu A. E., and Hupe D., “Reconstructed 19 kDa catalytic domain of gelatinase A is an active proteinase,” Biochemistry, 1995;34:4702-4708.) MMP-13CD was expressed from a synthetic gene and purified from Escherichia coli cell culture according to a previously described method (Ye Q.-Z., Johnson L. L., and Baragi V., “Gene synthesis and expression in E. coli for PUMP, a human matrix metalloproteinase,” Biochemical and Biophysical Research Communications, 1992; 186:143-149).

[2] = biological target: MMP-2CD (gelatinase A catalytic domain) (Homo sapiens, UniProt P08253); assay: MMP inhibition, thiopeptolide substrate assay; assay type: biochemical; conditions: thiopeptolide substrate Ac-Pro-Leu-Gly-thioester-Leu-Leu-Gly-OEt
Experimental: as §1

[3] = biological target: T2, MMP-7FL (matrilysin full length enzyme) (Homo sapiens, UniProt P09237); assay: MMP inhibition, thiopeptolide substrate assay; assay type: biochemical; conditions: thiopeptolide substrate Ac-Pro-Leu-Gly-thioester-Leu-Leu-Gly-OEt
T2 construct: MMP-7FL (matrilysin full length enzyme)
T2 sequence (P09237 95-267): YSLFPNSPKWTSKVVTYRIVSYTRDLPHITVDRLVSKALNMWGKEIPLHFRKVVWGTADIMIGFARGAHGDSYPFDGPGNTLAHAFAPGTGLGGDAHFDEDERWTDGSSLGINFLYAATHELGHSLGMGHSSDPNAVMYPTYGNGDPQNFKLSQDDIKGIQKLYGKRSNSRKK
Experimental: as §1

[4] = biological target: T3, MMP-14CD (membrane-type MMP-1) (Homo sapiens, UniProt P50281); assay: MMP inhibition, thiopeptolide substrate assay; assay type: biochemical; conditions: thiopeptolide substrate Ac-Pro-Leu-Gly-thioester-Leu-Leu-Gly-OEt; catalytic domain
T3 construct: Experiments were carried out with the full-length and catalytic domains of the proteinases
Experimental: as §1

[5] = biological target: T4, MMP-2FL (gelatinase A full length enzyme) (Homo sapiens, UniProt P08253); assay: MMP inhibition, thiopeptolide substrate assay; assay type: biochemical; conditions: thiopeptolide substrate Ac-Pro-Leu-Gly-thioester-Leu-Leu-Gly-OEt
T4 construct: MMP-2FL (gelatinase A full length enzyme)
T4 sequence (P08253 110-660): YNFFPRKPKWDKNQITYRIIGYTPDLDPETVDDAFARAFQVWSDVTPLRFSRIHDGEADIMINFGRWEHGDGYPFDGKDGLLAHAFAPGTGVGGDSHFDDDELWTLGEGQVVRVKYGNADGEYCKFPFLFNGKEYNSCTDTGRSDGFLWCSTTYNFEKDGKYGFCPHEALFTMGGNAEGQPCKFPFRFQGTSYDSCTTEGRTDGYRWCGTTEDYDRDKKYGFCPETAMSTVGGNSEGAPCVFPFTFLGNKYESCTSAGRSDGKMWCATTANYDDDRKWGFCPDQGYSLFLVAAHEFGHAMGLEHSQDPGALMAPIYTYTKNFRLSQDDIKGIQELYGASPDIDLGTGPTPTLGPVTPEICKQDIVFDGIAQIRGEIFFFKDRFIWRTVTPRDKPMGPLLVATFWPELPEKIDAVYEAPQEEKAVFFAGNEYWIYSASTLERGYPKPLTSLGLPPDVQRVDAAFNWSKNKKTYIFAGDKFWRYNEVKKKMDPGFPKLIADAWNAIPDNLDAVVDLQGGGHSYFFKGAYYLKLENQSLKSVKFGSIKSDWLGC
Experimental: as §1

[6] = biological target: T5, MMP-1FL (collagenase-1 full length enzyme) (Homo sapiens, UniProt P03956); assay: MMP inhibition, thiopeptolide substrate assay; assay type: biochemical; conditions: thiopeptolide substrate Ac-Pro-Leu-Gly-thioester-Leu-Leu-Gly-OEt
T5 construct: MMP-1FL (collagenase-1 full length enzyme)
T5 sequence (P03956 100-469): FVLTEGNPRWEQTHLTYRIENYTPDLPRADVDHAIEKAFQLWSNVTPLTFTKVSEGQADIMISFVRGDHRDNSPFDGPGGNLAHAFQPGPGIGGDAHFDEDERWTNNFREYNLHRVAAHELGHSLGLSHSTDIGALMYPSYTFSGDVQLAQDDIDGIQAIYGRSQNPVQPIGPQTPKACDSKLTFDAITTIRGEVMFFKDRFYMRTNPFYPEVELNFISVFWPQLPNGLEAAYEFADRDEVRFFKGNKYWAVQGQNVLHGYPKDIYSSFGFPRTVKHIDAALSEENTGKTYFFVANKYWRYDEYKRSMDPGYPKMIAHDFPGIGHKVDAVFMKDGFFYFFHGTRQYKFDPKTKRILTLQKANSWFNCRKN
Experimental: as §1

[7] = biological target: T6, MMP-13CD (collagenase-3 catalytic domain) (Homo sapiens, UniProt P45452); assay: MMP inhibition, thiopeptolide substrate assay; assay type: biochemical; conditions: thiopeptolide substrate Ac-Pro-Leu-Gly-thioester-Leu-Leu-Gly-OEt; catalytic domain expressed in Escherichia coli from a synthetic gene
T6 construct: MMP-13CD (collagenase-3 catalytic domain); made in house; host or cells: Escherichia coli
Experimental: as §1

[8] = biological target: T7, MMP-9-FL (gelatinase B full length enzyme) (Homo sapiens, UniProt P14780); assay: MMP inhibition, thiopeptolide substrate assay; assay type: biochemical; conditions: thiopeptolide substrate Ac-Pro-Leu-Gly-thioester-Leu-Leu-Gly-OEt
T7 construct: MMP-9-FL (gelatinase B full length enzyme)
Experimental: as §1

Chain of MMP-2CD (gelatinase A catalytic domain) (P08253 with tags, fused parts or gaps DEL222-396): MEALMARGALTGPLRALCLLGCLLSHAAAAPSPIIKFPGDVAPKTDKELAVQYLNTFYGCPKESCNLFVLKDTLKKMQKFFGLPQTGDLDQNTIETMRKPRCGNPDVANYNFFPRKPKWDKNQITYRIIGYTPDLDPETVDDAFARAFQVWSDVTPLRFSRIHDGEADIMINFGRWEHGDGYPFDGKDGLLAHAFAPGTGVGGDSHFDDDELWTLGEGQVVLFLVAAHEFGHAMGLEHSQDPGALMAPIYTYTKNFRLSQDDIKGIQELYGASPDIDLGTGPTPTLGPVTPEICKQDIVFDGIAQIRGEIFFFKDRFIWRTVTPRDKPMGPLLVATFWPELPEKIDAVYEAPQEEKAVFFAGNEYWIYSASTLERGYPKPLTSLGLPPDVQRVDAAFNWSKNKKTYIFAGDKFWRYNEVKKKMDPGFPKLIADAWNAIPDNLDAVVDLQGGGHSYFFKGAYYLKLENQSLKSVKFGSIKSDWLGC
T1 sequence (P08254 100-272 limits assumed): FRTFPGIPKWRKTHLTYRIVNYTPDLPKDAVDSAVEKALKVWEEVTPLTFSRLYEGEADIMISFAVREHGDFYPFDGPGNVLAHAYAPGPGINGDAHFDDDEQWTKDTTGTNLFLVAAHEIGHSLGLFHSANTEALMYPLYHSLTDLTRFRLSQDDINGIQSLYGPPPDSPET
T7 sequence (P14780 94-707): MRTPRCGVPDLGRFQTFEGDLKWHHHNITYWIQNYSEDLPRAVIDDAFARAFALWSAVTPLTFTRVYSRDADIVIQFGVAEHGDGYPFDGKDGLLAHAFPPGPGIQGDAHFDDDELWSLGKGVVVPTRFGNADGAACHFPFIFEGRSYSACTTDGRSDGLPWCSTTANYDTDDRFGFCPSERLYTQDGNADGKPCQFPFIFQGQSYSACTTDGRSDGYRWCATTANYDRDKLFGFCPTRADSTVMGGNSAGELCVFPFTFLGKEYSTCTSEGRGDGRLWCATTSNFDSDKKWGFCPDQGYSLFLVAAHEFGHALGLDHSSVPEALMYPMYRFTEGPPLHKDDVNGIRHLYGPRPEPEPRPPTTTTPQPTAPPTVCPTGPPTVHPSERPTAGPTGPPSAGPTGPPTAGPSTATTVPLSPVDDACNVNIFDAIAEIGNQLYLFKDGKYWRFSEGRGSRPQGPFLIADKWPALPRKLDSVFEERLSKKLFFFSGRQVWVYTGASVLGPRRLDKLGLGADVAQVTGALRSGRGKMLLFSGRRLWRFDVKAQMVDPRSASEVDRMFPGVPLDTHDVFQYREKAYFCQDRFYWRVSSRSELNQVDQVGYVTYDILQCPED

## O=C(CC(CCCc1ccccc1)C(=O)O)c1ccc2c3c(oc2c1)CCCC3 (stereo not shown) [Example 2, 2-[2-Oxo-2-(6,7,8,9-tetrahydro-dibenzofuran-3-yl)-ethyl]-5-phenyl-pentanoic acid]
[1]
  IC50: 0.13 µM
[2]
  IC50: 0.096 µM
[3]
  IC50: 84 µM
[4]
  IC50: 0.82 µM
[5]
  IC50: 0.445 µM
[6]
  IC50: 67 µM
[7]
  IC50: 9.7 µM

## O=C(O)CCC(=NO)c1ccc2c3c(oc2c1)CCCC3 [Example 1, 4-Hydroxyimino4-(6,7,8,9-tetrahydro-dibenzofuran-3-yl)-butyric acid]
other
  melting point: 164 °C
[1]
  IC50: 0.114 µM
[2]
  IC50: 0.0183 µM
[4]
  IC50: 0.24 µM
[8]
  IC50: 32 µM
[5]
  IC50: 0.0595 µM
[7]
  IC50: 1.21 µM

## CN1C(=O)N(CC(CC(=O)c2ccc3c4c(oc3c2)CCCC4)C(=O)O)C(=O)C1(C)C (stereo not shown) [Example 3, 4-Oxo-4-(6,7,8,9-tetrahydro-dibenzofuran-3-yl)-2-(3,4,4-trimethyl-2,5-dioxo-imidazolidin-1-ylmethyl)-butyric acid]
[1]
  IC50: 0.315 µM
[2]
  IC50: 0.0585 µM
[3]
  IC50: 86 µM
[4]
  IC50: 2 µM
[8]
  IC50: 14 µM
[5]
  IC50: 0.945 µM
[6]
  IC50: 31 µM
[7]
  IC50: 1.42 µM
